Measurements as given in PubChem BioAssay (NCI).
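Five concentrations, 48 hours, 96-well plates. Here, GI50 denotes the concentration required for 50% inhibition of growth. Definition used: TGI = concentration required for complete inhibition of growth.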

Tests used:
Experiment in all cases: inhibition of tumour cell growth, NCI panel, 48 h
ACHN renal = test system: ACHN renal
CAKI-1 renal = test system: CAKI-1 renal
HCC-2998 colon = test system: HCC-2998 colon
HOP-62 NSCLC = test system: HOP-62 NSCLC
HT29 colon = test system: HT29 colon
MOLT-4 leukemia = test system: MOLT-4 leukemia
OVCAR-5 ovarian = test system: OVCAR-5 ovarian
SF-268 CNS = test system: SF-268 CNS
SNB-75 CNS = test system: SNB-75 CNS
NCI-H226 lung = test system: NCI-H226 lung

Row | Compound | TGI (ACHN renal) [µM] | TGI (CAKI-1 renal) [µM] | TGI (HCC-2998 colon) [µM] | TGI (HOP-62 NSCLC) [µM] | TGI (HT29 colon) [µM] | TGI (MOLT-4 leukemia) [µM] | TGI (OVCAR-5 ovarian) [µM] | TGI (SF-268 CNS) [µM] | TGI (SNB-75 CNS) [µM] | GI50 (ACHN renal) [µM] | GI50 (CAKI-1 renal) [µM] | GI50 (HCC-2998 colon) [µM] | GI50 (HOP-62 NSCLC) [µM] | GI50 (HT29 colon) [µM] | GI50 (MOLT-4 leukemia) [µM] | GI50 (NCI-H226 lung) [µM] | TGI (NCI-H226 lung) [µM] | GI50 (OVCAR-5 ovarian) [µM] | GI50 (SF-268 CNS) [µM] | GI50 (SNB-75 CNS) [µM]
1 | COc1ccc2nc(-c3cccs3)cc(C(O)CN3CCSCC3)c2c1 (stereo not given) | 45.9 | > 100 | 58.9 | 65.8 | 74 | 56.3 | 59.8 | > 100 | 78.7 |  |  |  |  |  |  |  |  |  |  | 
2 | COc1ccc(-c2c3c(N)nc(-c4ccncc4)nc3nc3c2c(C)nn3-c2ccccc2)cc1 | > 100 | > 100 | > 100 | 37.6 | 16 | > 100 | > 100 | > 100 | 28.4 | 4.58 | > 100 | > 100 | 2.41 | 3.57 | 8.58 | > 100 | > 100 | 4.03 | 7.93 | 3.62
3 | O=C1/C(=C\c2c[nH]c3ccccc23)c2ccccc2N1c1c(Cl)cccc1Cl | 10.1 | 4.53 | 3.12 | 2.75 | 3.4 | 5.13 |  | 3.59 | 5.61 | 2.4 | 1.43 | 1.7 | 1.38 | 1.85 | 1.5 | 1.7 | 3.65 |  | 1.6 | 1.68
4 | C1C[OH+]CC[OH+]CCNCC[OH+]CC[OH+]CCN1.N.[Cl-].[Pt+4] | 44 | 37.8 | 32.6 | 66.3 | > 100 | 36.3 |  | 14.5 | 20.2 | 4.33 | 7.5 | 13.5 | 6.11 | 22.1 | 3.89 | 23 | 77.4 |  | 1.99 | 3.59
5 | NNC(=O)/C(=C/c1ccc(Cl)cc1Cl)NC(=O)c1ccccc1 | > 100 | > 100 | > 100 | > 100 | > 100 | > 100 | > 100 | > 100 | > 100 |  |  |  |  |  |  |  | > 100 |  |  | 
6 | Nc1ccccc1C#C/C=C\C#Cc1cccs1 | 58.3 | 21 | 19.3 | 33.2 | 57.3 | 84.1 | 32.7 | 34.9 | 61.9 | 15.9 | 3.75 | 4.17 | 11.2 | 20.3 | 2.49 | 2.22 | 16.9 | 15.2 | 4.26 | 16.8
7 | O=C1c2cccnc2C(=O)c2nc3cc(N4CCN(C5CC5)CC4)ccc3nc21 | 4.34 | 3.05 | 1.83 | 1.05 | 4.96 | 5.62 | 3.07 | 4.93 | 1.37 | 0.6 | 0.439 | 0.49 | 0.232 | 0.658 | 2.4 | 1.46 | 4.08 | 1.34 | 1.24 | 0.147
8 | COC(C(=O)[O][Ge]([CH3])([CH3])[CH3])c1ccccc1 (stereo not given) | > 100 | > 100 | > 100 | > 100 | > 100 | > 100 | > 100 | > 100 | > 100 | > 100 | > 100 | > 100 | > 100 | > 100 | > 100 |  |  | > 100 | > 100 | > 100
9 | NCCOCCOCCNc1nc(Cc2ccccc2)nc(NCCCN2CCCC2=O)n1 | > 100 | > 100 | > 100 | > 100 | > 100 | > 100 | > 100 | > 100 | > 100 | > 100 | > 100 | > 100 | > 100 | > 100 | > 100 | > 100 | > 100 | > 100 | > 100 | > 100
10 | CC1(C)CC(=O)c2c(C(F)(F)F)nn(-c3ccc(C(N)=O)c(NC4CCC(OC(=O)CN)CC4)c3)c2C1 (stereo not given) | > 100 | > 100 | 13.2 | > 100 | > 100 | 24.4 | > 100 | > 100 | > 100 | 0.0622 | 2.9 | 0.195 | 0.0785 | 0.0321 | 0.0437 | 0.103 | > 56.4 | 3.7 | 0.271 | 0.634
11 | C/C(=N\NS(=O)(=O)c1ccccc1)c1ccc(Cl)c(Cl)c1 | > 100 | > 100 | > 100 | > 100 | > 100 | > 100 | > 100 | > 100 | > 100 |  |  |  |  |  |  |  | > 100 |  |  | 
12 | O=C(N/C(=C\c1ccc2c(c1)OCO2)c1nc2ccccc2[nH]1)c1ccccc1 | > 100 | > 100 | > 87.3 | > 73.4 |  | 56.9 | > 100 | > 100 | > 74 |  |  |  |  |  |  |  | 77.1 |  |  | 
13 | O=C(O)/C=C\C(=O)N1C/C(=C\c2ccccc2Cl)C(=O)/C(=C/c2ccccc2Cl)C1 |  | 15 | 3.87 | 8.26 |  | 11.2 |  | 3.54 | 14 |  | 4.29 | 2.06 | 3.4 |  | 3.06 | 1.97 | 3.84 |  | 1.67 | 3.8
14 | COc1ccc(/C=C(/C#N)C(N)=O)cc1OC | > 100 | > 100 |  | > 100 | > 100 | > 100 | > 100 | > 100 | > 100 |  |  |  |  |  |  |  | > 100 |  |  | 
